The source of these data is patent publication US20260216368A1, “BIS-ESTER AND AMIDE CATIONIC LIPIDS” (SANOFI PASTEUR INC., priority 2022, published 2026).

Series [1] can be described thus: DLS size and polydispersity of hEPO mRNA lipid nanoparticles. It counts as physicochemical. The settings on record: hEPO mRNA LNP, Cationic Lipid:DMG-PEG2000:Cholesterol:DOPE=40:1.5:28.5:30, N/P ratio 4, Process A. As to the method: The lipid nanoparticles in the examples of the present invention were formulated using Process A of WO 2018/089801 (see, e.g., Example 1 and FIG. 1 of WO 2018/089801). Process A (“A”) relates to a conventional method of encapsulating mRNA by mixing mRNA with a mixture of lipids, without first pre-forming the lipids into lipid nanoparticles. In an exemplary process, an ethanol lipid solution and an aqueous buffered solution of mRNA were prepared separately. A solution of mixture of lipids (cationic lipid, helper lipids, zwitterionic lipids, PEG lipids etc.) was prepared by dissolving lipids in ethanol. The mRNA solution was prepared by dissolving the mRNA in citrate buffer. Then, these two solutions were mixed using a pump system. In some instances, the two solutions were mixed using a gear pump system. In certain embodiments, the two solutions were mixing using a ‘T’ junction (or “Y” junction). The mixture was then purified by diafiltration with a TFF process. The resultant formulation concentrated and stored at 2-8° C. until further use.
(§1) Lipid nanoparticle formulations of Table 1 were prepared by Process A. More specifically, an ethanolic solution of a mixture of lipids including DMG-PEG-2000, cationic lipid, cholesterol, and phosphatidylethanolamine (DOPE) in a ratio of 1.5:40:28.5:30 were combined with an aqueous buffered solution (1 mM Citrate and 150 mM NaCl) of target mRNA at an acidic pH (4.5) under controlled conditions to yield a dispersion of uniform lipid nanoparticles (LNPs). Upon ultrafiltration and diafiltration into the final buffer, the resulting nanoparticle dispersions were diluted to required concentration using the final buffer (10% Trehalose), sterile filtered and stored frozen at −80° C. until use.
All of the lipid nanoparticle formulations comprised hEPO mRNA and the different lipids in following mol % ratios: Cationic Lipid: DMG-PEG2000; Cholesterol:DOPE=40:1.5:28.5:30.
DLS measurements were performed using a Malvern Instruments Zetasizer with a backscattering detector angle of 173° and a 4-mW, 633-nm He—Ne laser (Worcestershire, UK). The samples were analyzed by diluting in 10% Trehalose and measuring the size and Poly dispersity Index (PDI) in an optical grade polystyrene cuvette.
The following lipid nanoparticles were formulated according to Example 51.
as §1, with “Table 3” for “Table 1”

Series [2] in a line: RiboGreen assay, % encapsulation of mRNA in lipid nanoparticles. It counts as physicochemical. The conditions noted are these: hEPO mRNA LNP, Cationic Lipid:DMG-PEG2000:Cholesterol:DOPE=40:1.5:28.5:30, N/P ratio 4, Process A. The source says: In embodiments, the lipid nanoparticle encapsulates a nucleic acid, optionally an mRNA encoding a peptide or protein. In embodiments, the peptide is an antigen. In embodiments, the lipid nanoparticle encapsulates an mRNA encoding a peptide or protein. As used herein, the phrase “encapsulation percentage” refers to the fraction of therapeutic agent (e.g. mRNA) that is effectively encapsulated within a liposomal-based vehicle (e.g. a lipid nanoparticle) relative to the initial fraction of therapeutic agent present in the lipid phase. In embodiments, the lipid nanoparticles have an encapsulation percentage for mRNA of at least 50%. In embodiments, the lipid nanoparticles have an encapsulation percentage for mRNA of at least 55%. In embodiments, the lipid nanoparticles have an encapsulation percentage for mRNA of at least 60%. In embodiments, the lipid nanoparticles have an encapsulation percentage for mRNA of at least 65%. In embodiments, the lipid nanoparticles have an encapsulation percentage for mRNA of at least 70%. In embodiments, the lipid nanoparticles have an encapsulation percentage for mRNA of at least 75%. In embodiments, the lipid nanoparticles have an encapsulation percentage for mRNA of at least 80%. In embodiments, the lipid nanoparticles have an encapsulation percentage for mRNA of at least 85%. In embodiments, the lipid nanoparticles have an encapsulation percentage for mRNA of at least 90%. In embodiments, the lipid nanoparticles have an encapsulation percentage for mRNA of at least 95%. In embodiments, the encapsulation percentage is calculated by performing the Ribogreen assay (Invitrogen) with and without the presence of 0.1% Triton-X 100.
The RiboGreen Assay is a fluorescence-based method for the determination of mRNA concentration (Total and Free) and % encapsulation using Quant-iT™ RiboGreen® RNA reagent in mRNA containing lipid nanoparticles.
• To each of the standards (Blank, mRNA-1, mRNA-2. mRNA-3, mRNA-4, mRNA-5) and Samples (free mRNA and total mRNA), add 1.0 mL of 200-fold Ribogreen Reagent Solution and gently mix by inversion. This is a 2× Dilution. • Add 200 μL of each standard and sample in triplicate using the reverse pipetting technique in a 96-well Costar Black with Clear Background Plate. Ensure no bubbles are present in the plate before the fluorescence reading. • Read the fluorescence signal using the below instrument parameters: • Read Type: Fluorescence, Bottom Read • Excitation: 485 nm; Cut-off: 515 nm; Emission: 530 nm • Plate Type: 96-well Costar Black with Clear Background
The average fluorescence from each calibration standard is plotted against the concentration to generate a linear calibration curve using the MS Excel software. The coefficient of determination (R^2) of calibration curve must be R^2>0.99.
[formula] • Where, • Y=average fluorescence value • m: slope • x: concentration (pg/mL) • c: y-intercept • Using the linear equation, calculate the concentration of free and total mRNA concentration in the test sample by replacing the y value in the equation with the average fluorescence value of each respective sample • Once the concentration is determined, the actual concentration in the sample can be back-calculated by multiplying the concentration in the test sample with the dilution factor (DF) as follows:
[formula] • Concentration of encapsulated mRNA can be determined by subtracting the concentration of free mRNA from the total mRNA. • % Encapsulation can then be calculated by taking the ratio of encapsulated mRNA over total mRNA and multiplying the result with 100.

The subject of series [3] is Human erythropoietin (hEPO) levels in sera. Description: Delivery of hEPO mRNA by intramuscular administration of lipid nanoparticles; serum hEPO by ELISA. The settings on record: for hEPO 6 Hr (ng/mL) Mean: 6 hours post dose. It counts as in vivo, Mouse. As to the method: WO2022/099003 A1 describes an in vivo assay for intramuscular administration (e.g. on page 46, paragraph [00206]). Further details of the intramuscular experiment performed in this application are provided below.
Treatment Regimen: On Day 1, animals from Groups 1-8 were dosed via intramuscular injection while under light isoflurane anesthesia according to the study design table above. Animals in Groups 2-8 were injected with EPO in the right leg only. Group 1 animals received saline control.
Interim Sample Collections: Interim whole blood (~50 μL) was collected by tail snip or saphenous vein at 6 hours post dose administration (±5%). Blood samples were collected into serum separator tubes, allowed to clot at room temperature for at least 10 minutes, centrifuged at ambient temperature at minimum 1000 g for 10 minutes and the serum was extracted. All serum samples were stored at nominally −70° C. until analysis hEPO by the Testing Facility. The results of the EPO analysis were included in the Data Submission.
Terminal Blood Collections: Whole blood was collected via cardiac puncture into serum separator tube, allowed to clot at room temperature for at least 10 minutes, centrifuged at ambient temperature at minimum 1000 g for 10 minutes and the serum was extracted. Serum samples were stored at nominally −70° C. until analyzed for hEPO by the Test Facility.
ELISA Assay: Human erythropoietin (hEPO) levels in sera samples were determined by ELISA kit (R&D systems, Cat #DEP-00) according to the manufactory instruction and the results were included in the Data Submission. The “shaker” protocol was used. The serum samples were diluted between 1:40 and 1:100.
The ability of the further exemplary lipid nanoparticles in Example 54 to deliver hEPO mRNA by intramuscular administration was tested in accordance with the experimental protocol set out in Example 52.
Background: An ELISA detects its analyte on a solid surface through an enzyme-linked reagent.

[4] abbreviates: first occasion, serum, 0.1 μg/animal hEPO mRNA LNP, IM, mice, n=4.
The mark [5] stands for this setting: fourth occasion, serum, 0.1 μg/animal hEPO mRNA LNP, IM, mice, n=4.

Turning to `CCCCCCCCCCC(O)CN(CCCCOC(=O)CN(C)CC(=O)OCCCCN(CC(O)CCCCCCCCCC)CC(O)CCCCCCCCCC)CC(O)CCCCCCCCCC` (stereo not drawn) [XIV], in series [1] (Table 1), the PDI is recorded as 0.098 and the “Size (nm)” value came out at 101 nm. Moreover, the “Encapsulation Percentage (%)” value in series [2] (Table 1) is recorded as 67%. Besides, the “in vivo hEPO protein production (FIG. 51)” value in series [3] (intramuscular delivery of hEPO mRNA using lipid nanoparticles comprising the compound, result in words) is “high levels of in vivo hEPO protein production”. Moreover, in series [3] (serum, 0.1 μg/animal hEPO mRNA LNP, single IM injection, female BALB/cJ mice, n=4), the “hEPO 6 Hr (ng/mL) Mean” value is 33.9 ng/mL. In addition, the “hEPO 24 Hr (ng/mL) Mean” value in series [3] (serum, 24 hours post dose, 0.1 μg/animal hEPO mRNA LNP, single IM injection, female BALB/cJ mice, n=4) came to 18.3 ng/mL.
In the case of `CCCCCCCCC(O)CN(CCCNC(=O)CC(C)(O)CC(=O)NCCCN(CC(O)CCCCCCCC)CC(O)CCCCCCCC)CC(O)CCCCCCCC` (stereo not drawn) [LXXXVIII], in series [1] (Table 3, further LNPs), the PDI is given as 0.134 and the “Size (nm)” value was determined as 100 nm. Further, the “Encapsulation Percentage (%)” value in series [2] (Table 3, further LNPs) is recorded as 84%. In series [3] (setting [4]), the “hEPO 6 Hr (ng/mL) Mean” value is 51.7 ng/mL.
`CCCCCCCCCCC(O)CN(CCCOC(=O)N[C@@H](Cc1c[nH]cn1)C(=O)OCCCN(CC(O)CCCCCCCCCC)CC(O)CCCCCCCCCC)CC(O)CCCCCCCCCC` (stereo partly drawn) [Compound CIII, 3-(bis(2-hydroxydodecyl)amino)propyl ((3-(bis(2-hydroxydodecyl)amino)propoxy)carbonyl)-L-histidinate]: in series [1] (Table 3, further LNPs), the PDI came to 0.126 and the “Size (nm)” value is recorded as 93 nm. Further, the “Encapsulation Percentage (%)” value in series [2] (Table 3, further LNPs) was found to be 91%. Also, the “hEPO 6 Hr (ng/mL) Mean” value in series [3] (setting [5]) was determined as 15.4 ng/mL.
As for `CCCCCCCCCCCOC(=O)CCCC(O)CN(CCCCN(C)C(=O)CN(C)CC(=O)N(C)CCCCN(CC(O)CCCCCC(=O)OC(CCCCCCCC)CCCCCCCC)CC(O)CCCC(=O)OCCCCCCCCCCC)CC(O)CCCCCC(=O)OC(CCCCCCCC)CCCCCCCC` (stereo not drawn) [Compound LXXVII, di(heptadecan-9-yl) 7,27-dihydroxy-9,25-bis(2-hydroxy-6-oxo-6-(undecyloxy)hexyl)-14,17,20-trimethyl-15,19-dioxo-9,14,17,20,25-pentaazatritriacontanedioate], in series [1] (Table 3, further LNPs), the PDI was found to be 0.137 and the “Size (nm)” value came out at 114 nm. For the same molecule, in series [2] (Table 3, further LNPs), the “Encapsulation Percentage (%)” value was determined as 99%. For the same molecule, the “hEPO 6 Hr (ng/mL) Mean” value in series [3] (fifth occasion, serum, 0.1 μg/animal hEPO mRNA LNP, IM, mice, n=4) turned out to be 45.6 ng/mL.
Consider `CCCCCCCCCCC(O)CN(CCCNC(=O)CC(C)(C)CC(=O)NCCCN(CC(O)CCCCCCCCCC)CC(O)CCCCCCCCCC)CC(O)CCCCCCCCCC` (stereo not drawn) [Compound LXXXVII, N,N′-bis({3-[bis(2-hydroxydodecyl)amino]propyl})-3,3-dimethylpentanediamide], for which, in series [1] (Table 3, further LNPs), the PDI was found to be 0.111 and the “Size (nm)” value came out at 123 nm. Moreover, the “Encapsulation Percentage (%)” value in series [2] (Table 3, further LNPs) is 88%. Further, the “hEPO 6 Hr (ng/mL) Mean” value in series [3] (setting [4]) came out at 29.1 ng/mL.
In the case of `CCCCCCCCCCC(O)CN(CCCOC(=O)[C@H](CCc1ccc(O)cc1)NC(=O)CCCN(CC(O)CCCCCCCCCC)CC(O)CCCCCCCCCC)CC(O)CCCCCCCCCC` (stereo partly drawn) [Compound C, 3-[bis(2-hydroxydodecyl)amino]propyl (S)-2-{4-[bis(2-hydroxydodecyl)amino]butyrylamino}-4-(p-hydroxyphenyl)butyrate], in series [1] (Table 3, further LNPs), the PDI was found to be 0.093 and the “Size (nm)” value is 108 nm. In series [2] (Table 3, further LNPs), the “Encapsulation Percentage (%)” value stood at 82%. In series [3] (setting [5]), the “hEPO 6 Hr (ng/mL) Mean” value stood at 37.2 ng/mL.
For the molecule `CCCCCCCCCCC(O)CN(CCCOC(=O)[C@H](Cc1c[nH]c2ccccc12)NC(=O)CCCN(CC(O)CCCCCCCCCC)CC(O)CCCCCCCCCC)CC(O)CCCCCCCCCC` (stereo partly drawn) [Compound CI, 3-(bis(2-hydroxydodecyl)amino)propyl (4-(bis(2-hydroxydodecyl)amino)butanoyl)-L-tryptophanate], in series [1] (Table 3, further LNPs), the PDI is listed as 0.155 and the “Size (nm)” value is 135 nm. The “Encapsulation Percentage (%)” value in series [2] (Table 3, further LNPs) stood at 85%. The “hEPO 6 Hr (ng/mL) Mean” value in series [3] (second occasion, serum, 0.1 μg/animal hEPO mRNA LNP, IM, mice, n=4) was found to be 40.5 ng/mL.
